Counter-ions that a name gives are not always drawn.
Legend:
Human 5-HT Transporter = Human 5-HT Transporter (Homo sapiens, UniProt P31645); experiment: Inhibition of 3H-5-HT Uptake by Cells Possessing the Human 5-HT Transporter (HC 5HT Transporter), Jar cells; details: HC-5HTC Transporter Ki (nM), Jar cells treated with staurosporine
Chain of Human 5-HT Transporter (P31645 whole entry): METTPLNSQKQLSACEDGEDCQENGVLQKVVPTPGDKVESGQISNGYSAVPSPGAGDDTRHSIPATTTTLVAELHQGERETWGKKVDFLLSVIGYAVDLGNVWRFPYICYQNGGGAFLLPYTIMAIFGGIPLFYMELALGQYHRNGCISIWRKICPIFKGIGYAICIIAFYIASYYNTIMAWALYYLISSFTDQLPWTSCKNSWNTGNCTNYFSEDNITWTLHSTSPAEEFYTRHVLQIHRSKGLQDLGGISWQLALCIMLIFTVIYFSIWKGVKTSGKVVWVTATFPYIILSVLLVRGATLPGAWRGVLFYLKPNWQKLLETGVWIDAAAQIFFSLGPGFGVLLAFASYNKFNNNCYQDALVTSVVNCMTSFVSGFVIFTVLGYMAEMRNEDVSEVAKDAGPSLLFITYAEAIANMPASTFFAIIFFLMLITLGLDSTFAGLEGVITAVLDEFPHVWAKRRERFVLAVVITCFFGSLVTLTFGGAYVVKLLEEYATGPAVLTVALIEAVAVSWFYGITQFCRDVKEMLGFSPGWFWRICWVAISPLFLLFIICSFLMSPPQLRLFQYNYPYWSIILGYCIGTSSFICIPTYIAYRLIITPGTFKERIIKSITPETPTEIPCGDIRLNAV

Ki (Human 5-HT Transporter) [nM] | melting point [°C] | SMILES
180 |  | COc1cc(N2CCN(CCc3coc4ccc(F)cc34)CC2)c2ncccc2c1 [Compound 16, 8-{4-[2-(5-fluoro-1-benzofuran-3-yl)ethyl]-1-piperazinyl}-6-methoxy-quinoline]
40.1 |  | COc1ccc2occ(CC(C)N3CCN(c4cc(Cl)cc5cccnc45)CC3)c2c1 (stereo not shown) [Compound 39, 6-chloro-8-{4-[2-(5-methoxy-1-benzofuran-3-yl)-1-methylethyl)piperazin-1-yl]quinoline]
53 |  | COc1ccc2occ([C@H]3CC[C@@H](N4CCN(c5ccc(Cl)c6cccnc56)CC4)CC3)c2c1 [Compound 65, 5-chloro-8-{4-[4-cis(5-methoxy-1-benzofuran-3-yl)cyclohexyl]piperazin-1-yl}quinoline]
 | 91 to 93 | Fc1cc(N2CCN(C3CCC(c4cc5ccccc5o4)CC3)CC2)c2ncccc2c1 (stereo not shown) [Compound 69, 8-[4-(4-benzofuran-2-yl-yclohexyl)-piperazin-1-yl]-6-fluoro-quinoline]
50.9 |  | Fc1cc(N2CCN(CCc3coc4ccc(F)cc34)CC2)c2ncccc2c1 [Compound 17, 8-{4-[2-(5-fluoro-1-benzofuran-3-yl)ethyl]-1-piperazinyl}-6-fluoro-quinoline]
75.6 |  | Cc1cc(N2CCN(CCc3coc4ccccc34)CC2)c2ncccc2c1 [Compound 3, 8-{4-[2-(1-benzofuran-3-yl)ethyl]-1-piperazinyl}-6-methylquinoline]
176 |  | COc1cccc2c1occ2[C@H]1CC[C@H](N2CCN(c3ccc(Cl)c4cccnc34)CC2)CC1 [Compound 64, 5-chloro-8-{4-[4-trans(7-methoxy-1-benzofuran-3-yl)cyclohexyl]piperazin-1-yl}quinoline]
9.46 |  | COc1cccc2c(CCN3CCN(c4cccc5cccnc45)CC3)coc12 [Compound 18, 8-{4-[2-(7-methoxy-1-benzofuran-3-yl)ethyl]-1-piperazinyl}-quinoline]
 | 55 to 58 | COc1cccc2c(C(C)CN3CCN(c4cc(Cl)cc5cccnc45)CC3)coc12 (stereo not shown) (as salt: HCl) [Compound 33, 8-{4-[2-(7-methoxy-1-benzofuran-3-yl)propyl]-1-piperazinyl}-6-chloro-quinoline]
9.53 |  | COc1cccc2c(C(C)CN3CCN(c4cccc5cccnc45)CC3)coc12 (stereo not shown) [Compound 31, 8-{4-[2-(7-methoxy-1-benzofuran-3-yl)propyl]-1-piperazinyl}quinoline]
51.9 |  | CC(CN1CCN(c2cccc3cccnc23)CC1)c1coc2ccccc12 (stereo not shown) [Compound 27, 8-{4-[2-(1-benzofuran-3-yl)propyl]-1-piperazinyl}quinoline]
31 |  | COc1cc(N2CCN(C(C)Cc3coc4c(OC)cccc34)CC2)c2ncccc2c1 (stereo not shown) [Compound 36, 6-methoxy-8-{4-[2-(7-methoxy-1-benzofuran-3-yl)-1-methylethyl)piperazin-1-yl]quinoline]
 | 80 | COc1cc(N2CCN(CCc3coc4ccc(F)cc34)CC2)c2ncccc2c1 (as salt: HCl) [Compound 16, 8-{4-[2-(5-fluoro-1-benzofuran-3-yl)ethyl]-1-piperazinyl}-6-methoxy-quinoline]
124 |  | COc1cccc2c1occ2[C@H]1CC[C@@H](N2CCN(c3ccc(Cl)c4cccnc34)CC2)CC1 [Compound 63, 5-chloro-8-{4-[4-cis(7-methoxy-1-benzofuran-3-yl)cyclohexyl]piperazin-1-yl}quinoline]
210 |  | COc1cc(N2CCN(CCc3coc4ccc(OC)cc34)CC2)c2ncccc2c1 [Compound 25, 8-{4-[2-(5-methoxy-1-benzofuran-3-yl)ethyl]-1-piperazinyl}-6-methoxy-quinoline]
1200 |  | COc1ccc2occ([C@H]3CC[C@H](N4CCN(c5ccc(Cl)c6cccnc56)CC4)CC3)c2c1 [Compound 66, 5-chloro-8-{4-[4-trans(5-methoxy-1-benzofuran-3-yl)cyclohexyl]piperazin-1-yl}quinoline]
65.3 |  | COc1cc(N2CCN([C@H]3CC[C@H](c4csc5ccc(F)cc54)CC3)CC2)c2ncccc2c1 [Compound 50, 6-methoxy-8-{4-[4-trans(5-fluoro-1-benzothien-3-yl)cyclohexyl]piperazin-1-yl}quinoline]
47.7 |  | COc1cccc2c(CCN3CCN(c4cc(Cl)cc5cccnc45)CC3)coc12 [Compound 20, 8-{4-[2-(7-methoxy-1-benzofuran-3-yl)ethyl]-1-piperazinyl}-6-chloro-quinoline]
1080 |  | Fc1cc(N2CCN(CCc3coc4cc(Cl)ccc34)CC2)c2ncccc2c1 [Compound 6, 8-{4-[2-(6-chloro-1-benzofuran-3-yl)ethyl]-1-piperazinyl}-6-fluoro-quinoline]
881 |  | COc1cccc2c(C(C)CN3CCN(c4cc(C)cc5cccnc45)CC3)coc12 (stereo not shown) [Compound 34, 8-{4-[2-(7-methoxy-1-benzofuran-3-yl)propyl]-1-piperazinyl}-6-methyl-quinoline]
 | 193 to 194 | COc1cc(N2CCN([C@H]3CC[C@H](c4cc5ccccc5s4)CC3)CC2)c2ncccc2c1 [Compound 71]
347 |  | Cc1cc(N2CCN(CC(C)c3coc4ccccc34)CC2)c2ncccc2c1 (stereo not shown) [Compound 30, 8-{4-[2-(1-benzofuran-3-yl)propyl]-1-piperazinyl}-6-methyl-quinoline]

Ki (Human 5-HT Transporter) [nM] | melting point [°C] | SMILES
472 |  | Fc1cc(N2CCN([C@H]3CC[C@@H](c4coc5ccccc54)CC3)CC2)c2ncccc2c1 [Compound 55, 8-{4-[4-cis(1-benzofuran-3-yl)cyclohexyl]-1-piperazinyl}-6-fluoroquinoline]
549 |  | COc1ccc2occ(CC(C)N3CCN(c4cc(C)cc5cccnc45)CC3)c2c1 (stereo not shown) [Compound 40, 6-methyl-8-{4-[2-(5-methoxy-1-benzofuran-3-yl)-1-methylethyl)piperazin-1-yl]quinoline]
659 |  | COc1cc(N2CCN([C@H]3CC[C@@H](c4csc5ccc(F)cc54)CC3)CC2)c2ncccc2c1 [Compound 49, 6-methoxy-8-{4-[4-cis(5-fluoro-1-benzothien-3-yl)cyclohexyl]piperazin-1-yl}quinoline]
71.3 |  | COc1ccc2c(CCN3CCN(c4cccc5cccnc45)CC3)coc2c1 [Compound 9, 8-{4-[2-(6-methoxy-1-benzofuran-3-yl)ethyl]-1-piperazinyl}-quinoline]
115 |  | CC(CN1CCN(c2cc(F)cc3cccnc23)CC1)c1coc2ccccc12 (stereo not shown) [Compound 29, 8-{4-[2-(1-benzofuran-3-yl)propyl]-1-piperazinyl}-6-fluoro-quinoline]
183 |  | COc1cccc2c(C(C)CN3CCN(c4cc(Cl)cc5cccnc45)CC3)coc12 (stereo not shown) [Compound 33, 8-{4-[2-(7-methoxy-1-benzofuran-3-yl)propyl]-1-piperazinyl}-6-chloro-quinoline]
67.2 |  | Fc1ccc2occ(CCN3CCN(c4cccc5cccnc45)CC3)c2c1 [Compound 15, 8-{4-[2-(5-fluoro-1-benzofuran-3-yl)ethyl]-1-piperazinyl}-quinoline]
42.2 |  | Clc1ccc2occ(CCN3CCN(c4cccc5cccnc45)CC3)c2c1 [Compound 12, 8-{4-[2-(5-chloro-1-benzofuran-3-yl)ethyl]-1-piperazinyl}-quinoline]
612 |  | COc1cc(N2CCN(CCc3coc4ccccc34)CC2)c2ncccc2c1 [Compound 4, 8-{4-[2-(1-benzofuran-3-yl)ethyl]-1-piperazinyl}-6-methoxyquinoline]
206 |  | COc1ccc2c(CCN3CCN(c4cc(C)cc5cccnc45)CC3)coc2c1 [Compound 10, 8-{4-[2-(6-methoxy-1-benzofuran-3-yl)ethyl]-1-piperazinyl}-6-methyl-quinoline]
58.2 |  | COc1cccc2c(C(C)CN3CCN(c4cc(C)cc5cccnc45)CC3)coc12 (stereo not shown) [Compound 32, 8-{4-[2-(7-methoxy-1-benzofuran-3-yl)propyl]-1-piperazinyl}-6-methyl-quinoline]
1710 |  | Clc1cc(N2CCN(CCc3coc4ccccc34)CC2)c2ncccc2c1 [Compound 2, 8-{4-[2-(1-benzofuran-3-yl)ethyl]-1-piperazinyl}-6-chloroquinoline]
9.82 |  | Cc1cc(N2CCN(CCc3coc4ccc(Cl)cc34)CC2)c2ncccc2c1 [Compound 14, 8-{4-[2-(5-chloro-1-benzofuran-3-yl)ethyl]-1-piperazinyl}-6-methyl-quinoline]
1780 |  | Cc1cc(N2CCN(CCc3coc4cc(Cl)ccc34)CC2)c2ncccc2c1 [Compound 8, 8-{4-[2-(6-chloro-1-benzofuran-3-yl)ethyl]-1-piperazinyl}-6-methyl-quinoline]
270 |  | Clc1cc(N2CCN(CCc3coc4ccc(Cl)cc34)CC2)c2ncccc2c1 [Compound 13, 8-{4-[2-(5-chloro-1-benzofuran-3-yl)ethyl]-1-piperazinyl}-6-chloro-quinoline]
1.6 |  | Clc1ccc2c(CCN3CCN(c4cccc5cccnc45)CC3)coc2c1 [Compound 5, 8-{4-[2-(6-chloro-1-benzofuran-3-yl)ethyl]-1-piperazinyl}-quinoline]
272 |  | COc1cccc2c1occ2[C@H]1CC[C@H](N2CCN(c3ccc(F)c4cccnc34)CC2)CC1 [Compound 58, 5-fluoro-8-{4-[4-trans(7-methoxy-1-benzofuran-3-yl)cyclohexyl]-1-piperazinyl}quinoline]
51 |  | COc1ccc2occ(CCN3CCN(c4cc(F)cc5cccnc45)CC3)c2c1 [Compound 26, 8-{4-[2-(5-methoxy-1-benzofuran-3-yl)ethyl]-1-piperazinyl}-6-fluoro-quinoline]
125 |  | CC(CN1CCN(c2cc(Cl)cc3cccnc23)CC1)c1coc2ccccc12 (stereo not shown) [Compound 28, 8-{4-[2-(1-benzofuran-3-yl)propyl]-1-piperazinyl}-6-chloro-quinoline]
540 |  | COc1ccc2c(CCN3CCN(c4cc(Cl)cc5cccnc45)CC3)coc2c1 [Compound 11, 8-{4-[2-(6-methoxy-1-benzofuran-3-yl)ethyl]-1-piperazinyl}-6-chloro-quinoline]
182 |  | COc1ccc2occ(CCN3CCN(c4cc(C)cc5cccnc45)CC3)c2c1 [Compound 23, 8-{4-[2-(5-methoxy-1-benzofuran-3-yl)ethyl]-1-piperazinyl}-6-methyl-quinoline]
